Experimental data from ChEMBL document CHEMBL1127356, “(Fluorocyclopropyl)quinolones. 2. Synthesis and Stereochemical structure-activity relationships of chiral 7-(7-amino-5-azaspiro[2.4]heptan-5-yl)-1-(2-fluorocyclopropyl)quinolone antibacterial agents” (J Med Chem, 1994).
Converted amounts (≈) assume the structure as drawn.

What was measured:
[1] = system: Staphylococcus epidermidis; experiment: Minimum inhibitory concentration in vitro against […] (56556); assay type: functional
Proteus vulgaris = experiment: Minimum inhibitory concentration in vitro against Proteus vulgaris (08601); assay type: functional
Enterobacter cloacae [2] = experiment: Minimum inhibitory concentration in vitro against […] (03400); assay type: functional
Klebsiella pneumoniae = experiment: Minimum inhibitory concentration in vitro against Klebsiella pneumoniae (type-2); assay type: functional
Serratia marcescens = experiment: Minimum inhibitory concentration in vitro against […]; assay type: functional
Enterococcus faecalis = experiment: Minimum inhibitory concentration in vitro against Streptococcus faecalis (ATCC 19433); assay type: functional
Rattus norvegicus [3] = experiment: Urinary recovery by oral administration to rats in conjugate form of compound at 20 mg/kg; assay type: ADME, organism-based, Urine; parameters: dose 20 mg/kg, route oral; conditions: in vivo
[4] = Maximum concentration in plasma was determined by oral administration to rats at 20 mg/kg; assay type: ADME, organism-based; parameters: dose 20 mg/kg, route oral; conditions: rat
Staphylococcus aureus [5] = experiment: Minimum inhibitory concentration in vitro against […] (209P); assay type: functional
Escherichia coli = experiment: Minimum inhibitory concentration in vitro against Escherichia coli (NIHJ); assay type: functional
[6] = Urinary recovery by oral administration to rats in unchanged form of compound at 20 mg/kg; assay type: ADME, organism-based; parameters: dose 20 mg/kg, route oral; conditions: rat, urine, read-out: Urinary recovery
Streptococcus pyogenes = experiment: Minimum inhibitory concentration in vitro against Streptococcus pyogenes (G36); assay type: functional
Pseudomonas aeruginosa = experiment: Minimum inhibitory concentration in vitro against Pseudomonas aeruginosa (32104); assay type: functional
Enterobacter cloacae [7] = experiment: Minimum inhibitory concentration in vitro against Enterobacter cloacae (03400); assay type: functional
Rattus norvegicus [8] = experiment: Urinary recovery by oral administration to rats at 20 mg/kg in conjugate form of compound; assay type: ADME, organism-based, Urine; parameters: dose 20 mg/kg, route oral; conditions: in vivo
[9] = Urinary recovery at 20 mg/kg was determined by oral administration to rats in unchanged form of compound; assay type: ADME, organism-based; parameters: dose 20 mg/kg, route oral; conditions: rat, urine, read-out: Urinary recovery
[10] = system: Staphylococcus epidermidis; experiment: Minimum inhibitory concentration in vitro against Staphylococcus epidermis (56556); assay type: functional
Staphylococcus aureus [11] = experiment: Minimum inhibitory concentration in vitro against Staphylococcus aureus (209P); assay type: functional
Staphylococcus aureus [12] = experiment: microbe, parasite or virus in culture
Description: Minimum inhibitory concentration against Streptococcus aureus (209P)

[13] = Staphylococcus epidermidis, read-out: MIC
[14] = Proteus vulgaris, read-out: MIC
[15] = Klebsiella pneumoniae, read-out: MIC
[16] = Serratia marcescens, read-out: MIC
[17] = Enterococcus faecalis, ATCC 19433, read-out: MIC
[18] = Staphylococcus aureus, read-out: MIC
[19] = Escherichia coli, read-out: MIC
[20] = Streptococcus pyogenes, read-out: MIC
[21] = Pseudomonas aeruginosa, read-out: MIC
[22] = Enterobacter cloacae, read-out: MIC

Row | MIC (Escherichia coli; [19]) [mg/L] | SMILES | MIC [1, 13] [mg/L] | MIC (Proteus vulgaris; [14]) [mg/L] | MIC (Klebsiella pneumoniae; [15]) [mg/L] | MIC (Serratia marcescens; [16]) [mg/L] | MIC (Enterococcus faecalis; [17]) [mg/L] | MIC (Staphylococcus aureus [5]; [18]) [mg/L] | MIC (Streptococcus pyogenes; [20]) [mg/L] | MIC (Pseudomonas aeruginosa; [21]) [mg/L] | MIC (Enterobacter cloacae [7]; [22]) [mg/L] | MIC (Klebsiella pneumoniae) [mg/L] | further results
1 | < 0.006 | N[C@@H]1CCN(c2c(F)cc3c(=O)c(C(=O)O)cn(C4CC4)c3c2Cl)C1 | 0.05 (≈ 0.137 µM) | 0.006 (≈ 0.0164 µM) | 0.025 (≈ 0.0683 µM) | 0.025 (≈ 0.0683 µM) | 0.1 (≈ 0.273 µM) | 0.025 (≈ 0.0683 µM) | 0.1 (≈ 0.273 µM) | 0.05 (≈ 0.137 µM) | – | – | MIC (Enterobacter cloacae [2]): 0.006 mg/L (≈ 0.0164 µM); Urinary recovery (Rattus norvegicus [3]): 5%; Cmax [4]: 3.9 µg/mL; dose excreted [6]: 24%
2 | 0.05 (≈ 0.128 µM) | N[C@@H]1CN(c2c(F)cc3c(=O)c(C(=O)O)cn(C4CC4)c3c2Cl)CC12CC2 | 0.1 (≈ 0.255 µM) | 0.05 (≈ 0.128 µM) | 0.05 (≈ 0.128 µM) | 0.1 (≈ 0.255 µM) | 0.39 (≈ 0.995 µM) | 0.1 (≈ 0.255 µM) | 0.78 (≈ 1.99 µM) | 0.39 (≈ 0.995 µM) | 0.05 (≈ 0.128 µM) | – | –
3 | 0.013 (≈ 0.0339 µM) | N[C@H]1CCN(c2c(F)cc3c(=O)c(C(=O)O)cn([C@H]4C[C@H]4F)c3c2Cl)C1 | 0.05 (≈ 0.13 µM) | 0.013 (≈ 0.0339 µM) | – | 0.05 (≈ 0.13 µM) | 0.2 (≈ 0.521 µM) | 0.025 (≈ 0.0651 µM) | 0.2 (≈ 0.521 µM) | 0.1 (≈ 0.261 µM) | 0.025 (≈ 0.0651 µM) | 0.05 (≈ 0.13 µM) | –
4 | < 0.006 | N[C@H]1CN(c2c(F)cc3c(=O)c(C(=O)O)cn(C4CC4)c3c2Cl)CC12CC2 | 0.025 (≈ 0.0638 µM) | 0.006 (≈ 0.0153 µM) | 0.025 (≈ 0.0638 µM) | 0.025 (≈ 0.0638 µM) | 0.1 (≈ 0.255 µM) | 0.013 (≈ 0.0332 µM) | 0.1 (≈ 0.255 µM) | 0.05 (≈ 0.128 µM) | 0.006 (≈ 0.0153 µM) | – | Urinary recovery (Rattus norvegicus [3]): 7%; Cmax [4]: 3.4 µg/mL; dose excreted [6]: 7%
5 | 0.006 (≈ 0.0156 µM) | NC1CCN(c2c(F)cc3c(=O)c(C(=O)O)cn([C@@H]4C[C@@H]4F)c3c2Cl)C1 (single isomer, unassigned) | – | 0.006 (≈ 0.0156 µM) | 0.05 (≈ 0.13 µM) | 0.025 (≈ 0.0651 µM) | 0.2 (≈ 0.521 µM) | – | 0.1 (≈ 0.261 µM) | 0.05 (≈ 0.13 µM) | 0.006 (≈ 0.0156 µM) | – | Urinary recovery (Rattus norvegicus [8]): 4%; dose excreted [9]: 12%; MIC [10]: 0.05 mg/L (≈ 0.13 µM); Cmax [4]: 2 µg/mL; MIC (Staphylococcus aureus [11]): 0.013 mg/L (≈ 0.0339 µM)
6 | – | N[C@@H]1CN(c2c(F)cc3c(=O)c(C(=O)O)cn(C4CC4F)c3c2Cl)CC12CC2 (stereo in doubt; 37) | – | – | – | – | – | – | – | – | – | 0.05 (≈ 0.122 µM) | MIC [1]: 0.1 mg/L (≈ 0.244 µM); MIC (Proteus vulgaris): 0.025 mg/L (≈ 0.061 µM); MIC (Serratia marcescens): 0.1 mg/L (≈ 0.244 µM); MIC (Enterococcus faecalis): 0.78 mg/L (≈ 1.9 µM); MIC (Staphylococcus aureus [5]): 0.1 mg/L (≈ 0.244 µM); MIC (Enterobacter cloacae [7]): 0.013 mg/L (≈ 0.0317 µM); MIC (Escherichia coli): 0.006 mg/L (≈ 0.0146 µM); MIC (Streptococcus pyogenes): 0.39 mg/L (≈ 0.952 µM); MIC (Pseudomonas aeruginosa): 0.39 mg/L (≈ 0.952 µM)
7 | – | N[C@@H]1CN(c2c(F)cc3c(=O)c(C(=O)O)cn(C4CC4F)c3c2Cl)CC12CC2 (stereo in doubt; 38) | – | – | – | 0.2 (≈ 0.488 µM) | – | – | – | – | – | 0.2 (≈ 0.488 µM) | MIC [1]: 0.78 mg/L (≈ 1.9 µM); MIC (Proteus vulgaris): 0.1 mg/L (≈ 0.244 µM); MIC (Enterococcus faecalis): 3.13 mg/L (≈ 7.64 µM); MIC (Staphylococcus aureus [5]): 0.78 mg/L (≈ 1.9 µM); MIC (Enterobacter cloacae [7]): 0.2 mg/L (≈ 0.488 µM); MIC (Escherichia coli): 0.05 mg/L (≈ 0.122 µM); MIC (Streptococcus pyogenes): 3.13 mg/L (≈ 7.64 µM); MIC (Pseudomonas aeruginosa): 1.56 mg/L (≈ 3.81 µM)
8 | – | N[C@H]1CN(c2c(F)cc3c(=O)c(C(=O)O)cn(C4CC4F)c3c2Cl)CC12CC2 (stereo in doubt; 39) | – | – | – | – | – | – | – | – | – | 0.39 (≈ 0.952 µM) | MIC [1]: 0.78 mg/L (≈ 1.9 µM); MIC (Proteus vulgaris): 0.1 mg/L (≈ 0.244 µM); MIC (Serratia marcescens): 0.39 mg/L (≈ 0.952 µM); MIC (Enterococcus faecalis): 6.25 mg/L (≈ 15.3 µM); MIC (Staphylococcus aureus [5]): 0.78 mg/L (≈ 1.9 µM); MIC (Enterobacter cloacae [7]): 0.1 mg/L (≈ 0.244 µM); MIC (Escherichia coli): 0.05 mg/L (≈ 0.122 µM); MIC (Pseudomonas aeruginosa): 1.56 mg/L (≈ 3.81 µM)
9 | – | N[C@H]1CN(c2c(F)cc3c(=O)c(C(=O)O)cn(C4CC4F)c3c2Cl)CC12CC2 (stereo in doubt; 40) | – | – | – | 0.78 (≈ 1.9 µM) | > 12.5 | – | > 12.5 | – | – | 1.56 (≈ 3.81 µM) | MIC [1]: 3.13 mg/L (≈ 7.64 µM); MIC (Proteus vulgaris): 0.39 mg/L (≈ 0.952 µM); MIC (Staphylococcus aureus [5]): 3.13 mg/L (≈ 7.64 µM); MIC (Enterobacter cloacae [7]): 0.78 mg/L (≈ 1.9 µM); MIC (Escherichia coli): 0.39 mg/L (≈ 0.952 µM); MIC (Pseudomonas aeruginosa): 6.25 mg/L (≈ 15.3 µM)
10 | – | O=C(O)c1cn(C2CC2)c2cc(N3CCNCC3)c(F)cc2c1=O [CIPROFLOXACIN] | 0.2 (≈ 0.604 µM) | 0.013 (≈ 0.0392 µM) | 0.05 (≈ 0.151 µM) | 0.05 (≈ 0.151 µM) | 1.56 (≈ 4.71 µM) | – | 1.56 (≈ 4.71 µM) | 0.1 (≈ 0.302 µM) | – | – | MIC (Staphylococcus aureus [12]): 0.1 mg/L (≈ 0.302 µM)

Row | SMILES | MIC (Escherichia coli; [19]) [mg/L] | MIC [1, 13] [mg/L] | MIC (Proteus vulgaris; [14]) [mg/L] | MIC (Klebsiella pneumoniae; [15]) [mg/L] | MIC (Serratia marcescens; [16]) [mg/L] | MIC (Enterococcus faecalis; [17]) [mg/L] | MIC (Staphylococcus aureus [5]; [18]) [mg/L] | MIC (Streptococcus pyogenes; [20]) [mg/L] | MIC (Pseudomonas aeruginosa; [21]) [mg/L] | MIC (Enterobacter cloacae [7]; [22]) [mg/L] | MIC (Klebsiella pneumoniae) [mg/L] | further results
11 | N[C@H]1CN(c2c(F)cc3c(=O)c(C(=O)O)cn(C4C[C@H]4F)c3c2Cl)CC12CC2 (single isomer, unassigned) | 0.05 (≈ 0.122 µM) | 0.2 (≈ 0.488 µM) | 0.05 (≈ 0.122 µM) | 0.1 (≈ 0.244 µM) | 0.5 (≈ 1.22 µM) | 0.39 (≈ 0.952 µM) | 0.1 (≈ 0.244 µM) | 0.2 (≈ 0.488 µM) | 0.78 (≈ 1.9 µM) | 0.05 (≈ 0.122 µM) | – | –
12 | N[C@H]1CN(c2c(F)cc3c(=O)c(C(=O)O)cn(C4C[C@@H]4F)c3c2Cl)CC12CC2 (single isomer, unassigned) | 0.025 (≈ 0.061 µM) | 0.1 (≈ 0.244 µM) | 0.025 (≈ 0.061 µM) | 0.05 (≈ 0.122 µM) | 0.1 (≈ 0.244 µM) | 0.78 (≈ 1.9 µM) | 0.1 (≈ 0.244 µM) | 0.1 (≈ 0.244 µM) | 0.39 (≈ 0.952 µM) | 0.025 (≈ 0.061 µM) | – | –
13 | N[C@@H]1CN(c2c(F)cc3c(=O)c(C(=O)O)cn(C4C[C@H]4F)c3c2Cl)CC12CC2 (single isomer, unassigned) | 0.013 (≈ 0.0317 µM) | 0.05 (≈ 0.122 µM) | 0.013 (≈ 0.0317 µM) | 0.025 (≈ 0.061 µM) | 0.05 (≈ 0.122 µM) | 0.2 (≈ 0.488 µM) | 0.025 (≈ 0.061 µM) | 0.2 (≈ 0.488 µM) | 0.2 (≈ 0.488 µM) | 0.013 (≈ 0.0317 µM) | – | –
14 | NC1CN(c2c(F)cc3c(=O)c(C(=O)O)cn([C@@H]4C[C@@H]4F)c3c2Cl)CC12CC2 (single isomer, unassigned) [SITAFLOXACIN ANHYDROUS] | < 0.006 | 0.025 (≈ 0.061 µM) | 0.006 (≈ 0.0146 µM) | 0.025 (≈ 0.061 µM) | 0.025 (≈ 0.061 µM) | 0.1 (≈ 0.244 µM) | 0.013 (≈ 0.0317 µM) | 0.05 (≈ 0.122 µM) | 0.05 (≈ 0.122 µM) | 0.006 (≈ 0.0146 µM) | – | Urinary recovery (Rattus norvegicus [3]): 1%; Cmax [4]: 2.6 µg/mL; dose excreted [6]: 22%
